Source: patent publication US6362369B1, “Phthalic acid diamide derivatives fluorine-containing aniline compounds as starting material, agricultural and horticultural insecticides, and a method for application of the insecticides” (Nihon Nohyaku Co., Ltd., priority 1997, dated 2002)

Tests used:
Format in all cases: in vivo
[1] = test system: diamondback moth (Plutella xylostella); experiment: Insecticidal effect on diamondback moth (Test Example 1); details: for Insecticidal effect (Test Example 1), judged from mortality / Insecticidal effect, Test Example 1: diamondback moth; for Insecticidal effect (Test Example 1), judged from mortality: judged by the criterion of Test Example 1; for Insecticidal effect on diamondback moth (Test Example 1), judged grade: mortality judged according to the criterion shown in Test Example 1
Method in brief: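 Eggs laid by adult moths on Chinese cabbage seedlings, which were immersed in test solution, air-dried and kept at 25 °C. Hatched insects counted 6 days after immersion and mortality calculated, with effect graded by criterion; triplicate groups of 10 insects.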

[2] = test system: common cutworm (Spodoptera Litura); experiment: Insecticidal effect on common cutworm (Test Example 2); details: 500 ppm, 25° C.; for Insecticidal effect (Test Example 2), judged from mortality / Insecticidal effect on common cutworm (Test Example 2), judged grade: cabbage leaf dip; for Insecticidal effect (Test Example 2), judged from mortality: 8 days after inoculation; for Insecticidal effect, Test Example 2: cabbage leaf immersed; for Insecticidal effect, Test Example 2 / Insecticidal effect on common cutworm (Test Example 2), judged grade: eight days after inoculation; for Insecticidal effect on common cutworm (Test Example 2), judged grade: second-instar larvae
Method in brief: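 After the treated material air-dries, it goes into a dish, second-instar larvae are added, and the dish is closed. Incubation runs at 25° C. On day eight, dead and living larvae are scored, and the calculated mortality is rated on an effect scale.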

[3] = test system: rice leafroller (Cnaphalocrocis medinalis); experiment: Insecticidal effect on rice leafroller (Test Example 3); details: 500 ppm, 25° C., humidity 70%; for Insecticidal effect (Test Example 3), judged from mortality / Insecticidal effect on rice leafroller (Test Example 3), judged grade: rice lamina dip; for Insecticidal effect (Test Example 3), judged from mortality: 4 days after inoculation; for Insecticidal effect, Test Example 3: rice lamina immersed; for Insecticidal effect, Test Example 3 / Insecticidal effect on rice leafroller (Test Example 3), judged grade: four days after inoculation; for Insecticidal effect on rice leafroller (Test Example 3), judged grade: third-instar larvae
Method in brief: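 Groups of 10 third-instar larvae, in triplicate, are placed on air-dried lamina resting on wet filter paper. Incubation runs four days at 25° C with 70% humidity before survivors and dead are tallied.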

[4] = second-instar larvae of common cutworm
[5] = third-instar larvae of rice leafroller
[6] = judged by the mortality criterion of Test Example 1
[7] = mortality judged by criterion of Test Example 1
[8] = common cutworm second-instar larvae
[9] = rice leafroller third-instar larvae

Cc1cc(C(F)(F)C(F)(F)F)ccc1NC(=O)c1cccc(Cl)c1C(=O)NC(C)(C)c1ccc(Cl)cc1 [compound 1484]
Insecticidal effect (Test Example 1), judged from mortality [1]: A (100) | Insecticidal effect (Test Example 2), judged from mortality [2, 4]: A (100) | Insecticidal effect (Test Example 3), judged from mortality [3, 5]: A (100)

CC(C)(C)NC(=O)c1c(Cl)cccc1C(=O)Nc1ccc(C(F)(F)C(F)(F)F)cc1 [compound 1447]
Insecticidal effect (Test Example 1), judged from mortality [1]: A (100) | Insecticidal effect (Test Example 2), judged from mortality [2, 4]: A (100) | Insecticidal effect (Test Example 3), judged from mortality [3, 5]: A (100)

Cc1cccc(NC(=O)c2cccc(Cl)c2C(=O)NC(C)C)c1C [compound 117]
Insecticidal effect, Test Example 1 [1, 6]: A (100) | Insecticidal effect, Test Example 2 [2, 4]: A (100) | Insecticidal effect, Test Example 3 [3, 5]: A (100)

CCc1cc(Cl)ccc1NC(=O)c1cccc(Br)c1C(=O)NC(C)C [compound 271]
Insecticidal effect, Test Example 1 [1, 6]: A (100) | Insecticidal effect, Test Example 2 [2, 4]: A (100) | Insecticidal effect, Test Example 3 [3, 5]: A (100)

Cc1cc(Sc2ccc(Cl)cc2)ccc1NC(=O)c1cccc(I)c1C(=O)NC(C)C [compound 404]
Insecticidal effect, Test Example 1 [1, 6]: A (100) | Insecticidal effect, Test Example 2 [2, 4]: A (100) | Insecticidal effect, Test Example 3 [3, 5]: A (100)

Cc1cc(OC(F)(F)C(F)(F)Br)ccc1NC(=O)c1cccc(I)c1C(=O)NC(C)C [compound 380]
Insecticidal effect, Test Example 1 [1, 6]: A (100) | Insecticidal effect, Test Example 2 [2, 4]: A (100) | Insecticidal effect, Test Example 3 [3, 5]: A (100)

Cc1cc(OC(F)(F)C(F)C(F)(F)F)ccc1NC(=O)c1cccc(I)c1C(=O)NC(C)C (stereo not drawn) [compound 393]
Insecticidal effect, Test Example 1 [1, 6]: A (100) | Insecticidal effect, Test Example 2 [2, 4]: A (100) | Insecticidal effect, Test Example 3 [3, 5]: A (100)

Cc1c(Br)ccc(NC(=O)c2cccc(Br)c2C(=O)NC(C)C)c1C [compound 273]
Insecticidal effect, Test Example 1 [1, 6]: A (100) | Insecticidal effect, Test Example 2 [2, 4]: D (79-50) | Insecticidal effect, Test Example 3 [3, 5]: D (79-50)

CC(C)NC(=O)c1c(I)cccc1C(=O)Nc1ccc(OC(F)(F)C(F)OC(F)(F)F)cc1 (stereo not drawn) [compound 353]
Insecticidal effect, Test Example 1 [1, 6]: A (100) | Insecticidal effect, Test Example 2 [2, 4]: A (100) | Insecticidal effect, Test Example 3 [3, 5]: A (100)

Cc1cc(C(F)(F)C(F)(F)F)ccc1NC(=O)c1cccc(I)c1C(=O)NCCC(C)C [compound 1015]
Insecticidal effect, Test Example 1 [1, 7]: A (100) | Insecticidal effect, Test Example 2 [2, 8]: D (79-50) | Insecticidal effect, Test Example 3 [3, 9]: A (100)

Cc1cc(Br)ccc1NC(=O)c1cccc(Cl)c1C(=O)NC(C)C [compound 121]
Insecticidal effect, Test Example 1 [1, 6]: A (100) | Insecticidal effect, Test Example 2 [2, 4]: A (100) | Insecticidal effect, Test Example 3 [3, 5]: A (100)

Cc1cc(OC(F)(F)C(F)(Br)C(F)(F)F)ccc1NC(=O)c1c(Cl)cccc1C(=O)NC(C)C (stereo not drawn) [compound 243]
Insecticidal effect, Test Example 1 [1, 6]: A (100) | Insecticidal effect, Test Example 2 [2, 4]: A (100) | Insecticidal effect, Test Example 3 [3, 5]: B (99-90)

Cc1cc(SC(F)(F)C(F)(F)F)ccc1NC(=O)c1cccc(I)c1C(=O)NC(C)C [compound 909]
Insecticidal effect on diamondback moth (Test Example 1), judged grade [1]: A (100) | Insecticidal effect on common cutworm (Test Example 2), judged grade [2]: A (100) | Insecticidal effect on rice leafroller (Test Example 3), judged grade [3]: A (100)

CCN(CC)C(=O)c1c(C(=O)Nc2ccc(C(F)(C(F)(F)F)C(F)(F)F)cc2C)cccc1[N+](=O)[O-] [compound 1119]
Insecticidal effect, Test Example 1 [1, 7]: A (100) | Insecticidal effect, Test Example 2 [2, 8]: A (100) | Insecticidal effect, Test Example 3 [3, 9]: A (100)

Cc1cc(OCC(F)(F)F)ccc1NC(=O)c1cccc(I)c1C(=O)NC(C)C [compound 379]
Insecticidal effect, Test Example 1 [1, 6]: A (100) | Insecticidal effect, Test Example 2 [2, 4]: A (100) | Insecticidal effect, Test Example 3 [3, 5]: A (100)

CCNC(=O)c1cccc(I)c1C(=O)Nc1ccc(C(F)(F)C(F)(F)F)cc1C [compound 1314]
Insecticidal effect, Test Example 1 [1, 7]: A (100) | Insecticidal effect, Test Example 2 [2, 8]: A (100) | Insecticidal effect, Test Example 3 [3, 9]: A (100)

Cc1cc(OC(F)(F)C(F)(Cl)Cl)ccc1NC(=O)c1c(F)cccc1C(=O)NC(C)C [compound 553]
Insecticidal effect on diamondback moth (Test Example 1), judged grade [1]: A (100) | Insecticidal effect on common cutworm (Test Example 2), judged grade [2]: C (89-80) | Insecticidal effect on rice leafroller (Test Example 3), judged grade [3]: A (100)

Cc1cc(OC(F)(F)C(F)F)ccc1NC(=O)c1c(Cl)cccc1C(=O)NC(C)C [Compound No. 239, 6-chloro-N^1-[4-(1,1,2,2-tetrafluoroethoxy)-2-methylphenyl]-N^2-isopropylphthalic acid diamide]
Insecticidal effect, Test Example 1 [1, 6]: A (100) | Insecticidal effect, Test Example 2 [2, 4]: A (100) | Insecticidal effect, Test Example 3 [3, 5]: A (100)

CC(C)(C)NC(=O)c1c(I)cccc1C(=O)Nc1ccc2c(c1)OC(F)(F)O2 [compound 1105]
Insecticidal effect, Test Example 1 [1, 7]: A (100) | Insecticidal effect, Test Example 2 [2, 8]: A (100) | Insecticidal effect, Test Example 3 [3, 9]: A (100)

CSc1cccc(C(=O)Nc2ccc(OC(F)F)cc2C)c1C(=O)NC(C)C [compound 783]
Insecticidal effect on diamondback moth (Test Example 1), judged grade [1]: A (100) | Insecticidal effect on common cutworm (Test Example 2), judged grade [2]: A (100) | Insecticidal effect on rice leafroller (Test Example 3), judged grade [3]: A (100)

CC(C)NC(=O)c1c(Cl)cccc1C(=O)Nc1ccc2c(c1)OC(F)C(F)(F)O2 (stereo not drawn) [compound 1147]
Insecticidal effect, Test Example 1 [1, 7]: A (100) | Insecticidal effect, Test Example 2 [2, 8]: A (100) | Insecticidal effect, Test Example 3 [3, 9]: A (100)

Cc1cc(C(F)(F)C(F)(F)F)ccc1NC(=O)c1cccc([N+](=O)[O-])c1C(=O)NC(C)C [compound 683]
Insecticidal effect on diamondback moth (Test Example 1), judged grade [1]: A (100) | Insecticidal effect on common cutworm (Test Example 2), judged grade [2]: A (100) | Insecticidal effect on rice leafroller (Test Example 3), judged grade [3]: A (100)

Cc1cc(OC(F)(F)C(F)(Br)C(F)(F)F)ccc1NC(=O)c1cccc(Cl)c1C(=O)NC(C)C (stereo not drawn) [compound 148]
Insecticidal effect, Test Example 1 [1, 6]: A (100) | Insecticidal effect, Test Example 2 [2, 4]: A (100) | Insecticidal effect, Test Example 3 [3, 5]: A (100)

Cc1cc(C(F)(F)C(F)(F)F)ccc1NC(=O)c1cccc(I)c1C(=O)NC(C)CO (stereo not drawn) [compound 1300]
Insecticidal effect, Test Example 1 [1, 7]: A (100) | Insecticidal effect, Test Example 2 [2, 8]: A (100) | Insecticidal effect, Test Example 3 [3, 9]: A (100)

Cc1c(Cl)ccc(NC(=O)c2cccc(Br)c2C(=O)NC(C)C)c1C [compound 269]
Insecticidal effect, Test Example 1 [1, 6]: A (100) | Insecticidal effect, Test Example 2 [2, 4]: A (100) | Insecticidal effect, Test Example 3 [3, 5]: A (100)

CC(C)NC(=O)c1c(Cl)cccc1C(=O)Nc1ccc2c(c1)OC(F)(F)C(F)(F)O2 [compound 977]
Insecticidal effect, Test Example 1 [1, 7]: A (100) | Insecticidal effect, Test Example 2 [2, 8]: A (100) | Insecticidal effect, Test Example 3 [3, 9]: A (100)

Cc1cc(OC(F)F)ccc1NC(=O)c1cccc(I)c1C(=O)NCc1ccccc1 [compound 1430]
Insecticidal effect, Test Example 1 [1, 7]: A (100) | Insecticidal effect, Test Example 2 [2, 8]: D (79-50) | Insecticidal effect, Test Example 3 [3, 9]: A (100)

Cc1cc(OC(F)(F)C(F)Cl)ccc1NC(=O)c1c(I)cccc1C(=O)NC(C)C (stereo not drawn) [compound 455]
Insecticidal effect on diamondback moth (Test Example 1), judged grade [1]: A (100) | Insecticidal effect on common cutworm (Test Example 2), judged grade [2]: B (99-90) | Insecticidal effect on rice leafroller (Test Example 3), judged grade [3]: A (100)

CC(C)NC(=O)c1c(Cl)cccc1C(=O)Nc1ccc(OC(F)F)cc1C(F)(F)F [compound 163]
Insecticidal effect, Test Example 1 [1, 6]: A (100) | Insecticidal effect, Test Example 2 [2, 4]: A (100) | Insecticidal effect, Test Example 3 [3, 5]: A (100)

CCC(C)NC(=O)c1c(Cl)cccc1C(=O)Nc1ccc(C(F)(F)C(F)(F)C(F)(F)F)cc1F (stereo not drawn) [compound 1500]
Insecticidal effect (Test Example 1), judged from mortality [1]: A (100) | Insecticidal effect (Test Example 2), judged from mortality [2, 4]: A (100) | Insecticidal effect (Test Example 3), judged from mortality [3, 5]: A (100)

Cc1cc(C(F)(F)C(F)(F)F)ccc1NC(=O)c1cccc(OC(F)(F)F)c1C(=O)NC(C)(C)C [compound 1192]
Insecticidal effect, Test Example 1 [1, 7]: A (100) | Insecticidal effect, Test Example 2 [2, 8]: A (100) | Insecticidal effect, Test Example 3 [3, 9]: A (100)
